Data: patent publication US20020016341A1, “Heterocyclic thioester and ketone hair growth compositions and uses” (priority 1998, published 2002)

Each compound was assayed against FKBP12 (Homo sapiens, UniProt P62942) (assay: Ki test: inhibition of peptidyl-prolyl isomerase (rotamase) activity, chymotrypsin-coupled assay). Conditions: not given.
Format: biochemical
Text: The inhibition of the prolyl peptidyl cis-trans isomerase activity of FKBP may be measured as an indicator of this affinity.
Inhibition of the peptidyl-prolyl isomerase (rotamase) activity of the compounds used in the inventive methods and pharmaceutical compositions can be evaluated by known methods described in the literature (Harding et al., Nature, 1989, 341:758-760; Holt et al. J. Am. Chem. Soc., 115:9923-9938).
The cis-trans isomerization of an alanine-proline bond in a model substrate, N-succinyl-Ala-Ala-Pro-Phe-p-nitroanilide, is monitored spectrophotometrically in a chymotrypsin-coupled assay, which releases paranitroanilide from the trans form of the substrate. The inhibition of this reaction caused by the addition of different concentrations of inhibitor is determined, and the data is analyzed as a change in first-order rate constant as a function of inhibitor concentration to yield the apparent K1 values.
In a plastic cuvette are added […] of ice cold assay buffer (25 mM HEPES, pH 7.8, 100 mM NaCl), 10 mL of FKBP (2.5 mM in 10 mM Tris-Cl pH 7.5, 100 mM NaCl, 1 mM dithiothreitol), 25 mL of chymotrypsin (50 mg/ml in 1 mM HCl) and […] of test compound at various concentrations in dimethyl sulfoxide. The reaction is initiated by the addition of 5 mL of substrate (succinyl-Ala-Phe-Pro-Phe-para-nitroanilide, 5 mg/mL in 2.35 mM LiCl in trifluoroethanol).
The absorbance at 390 nm versus time is monitored for 90 seconds using a spectrophotometer and the rate constants are determined from the absorbance versus time data files.

FKBP12, sequence (P62942 whole entry, species assumed): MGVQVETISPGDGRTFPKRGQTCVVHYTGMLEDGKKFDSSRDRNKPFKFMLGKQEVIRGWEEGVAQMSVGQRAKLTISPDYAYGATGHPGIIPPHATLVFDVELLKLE

Row | Compound | Ki [nM]
1 | O=C(C(=O)N1CCCCC1C(=O)CCCCCc1ccccc1)C1CCCCC1 (centres unmarked) [Compound 68] | 284
2 | CC(C)(C)C(=O)C(=O)N1CCCCC1C(=O)C(CCc1ccccc1)CCc1ccccc1 (centres unmarked) [Compound 69] | 49

Same assay, conditions: apparent Ki, rotamase inhibition; read-out: Ki

Row | Compound | Ki [nM]
3 | 3-(2-Fluorophenyl)propyl (2S)-1-(3,3-dimethyl-2-oxopentanoyl)-2-pyrrolidinecarbothioate [Compound 57] | 57
4 | 3-Phenyl-1-propyl (2S)-1-(2-cyclohexyl-1,2-dioxoethyl)-2-pyrrolidinecarbothioate [Compound 32] | 362
5 | CCC(C)(C)C(=O)C(=O)N1CCC[C@H]1C(=O)CCCC(c1ccc(F)cc1)c1ccc(F)cc1 [Compound 70, 1-{(2S)-2-[5,5-di(4-Fluorophenyl)pentanoyl]-2-pyrrolidine}-3,3-dimethyl-1,2-pentanedione] | 457
6 | 4-Phenyl-1-butyl 1-(1,2-dioxo-3,3-dimethylbutyl)-2-piperidinecarbothioate [Compound 39] | 347
7 | CCC(C)(C)C(=O)C(=O)N1CCC[C@H]1C(=O)SCc1csc2ccccc12 [Compound 11, (3-Thioindolyl)methyl (2S)-1-(3,3-dimethyl-1,2-dioxopentyl)-2-pyrrolidinecarbothioate] | 299
8 | 3-Phenylpropyl 1-(3,3-dimethyl-2-oxopentanoyl)-2-piperidinecarbothioate [Compound 60] | 90
9 | 3-(1-Naphthyl)-1-propyl 1-(3,3-dimethyl-1,2-dioxopentyl)piperidine-2-carbothioate [Compound 44] | 188
10 | 4-Phenyl-1-butyl (2S)-1-(3,3-dimethyl-1,2-dioxopentyl)-2-pyrrolidinecarbothioate [Compound 34] | 34
11 | 3-(2-Chlorophenyl)propyl (2S)-1-(3,3-dimethyl-2-oxopentanoyl)-2-pyrrolidinecarbothioate [Compound 61] | 139
12 | 4,4-Di(para-fluorophenyl)butyl 1-(3,3-dimethyl-2-oxopentanoyl)-2-pyrrolidinecarbothioate [Compound 46] | 757
13 | 3-(3-Pyridyl)-1-propyl (2S)-1-(2-cyclohexyl-1,2-dioxoethyl)-2-pyrrolidinecarbothioate [Compound 35] | 62
14 | CCC(C)(C)C(=O)C(=O)N1CCCCC1C(=O)SCCCc1ccc2ccccc2c1 [Compound 53, 3-(2-Naphthyl)propyl (2R,S)-1-(3,3-dimethyl-2-oxopentanoyl)-2-piperidinecarbothioate] | 261
15 | CCC(C)(C)C(=O)C(=O)N1CCC[C@H]1C(=O)CCCCc1ccccc1 [Compound 1] | 31
16 | 3-(1-Naphthyl)propyl (2S)-1-(3,3-dimethyl-2-oxopentanoyl)-2-pyrrolidinecarbothioate [Compound 47] | 21
17 | 3-(para-Methoxyphenyl)-1-propyl 1-(2-phenyl-1,2-dioxoethyl)piperidine-2-carbothioate [Compound 43] | 259
18 | 2-Phenyl-1-ethyl 1-(2-phenyl-1,2-dioxoethyl)-2-piperidinecarbothioate [Compound 14] | 313
19 | CCC(C)(C)C(=O)C(=O)N1CCC[C@H]1C(=O)SCCC(c1ccc(F)cc1)c1ccc(F)cc1 [Compound 45, 3,3-Di(para-fluoro)phenyl-1-propyl (2S)-1-(3,3-dimethyl-1,2-dioxopentyl)-2-pyrrolidinecarbothioate] | 31
20 | 2-Phenyl-1-ethyl 1-(3,3-dimethyl-1,2-dioxopentyl)-2-piperidinecarbothioate [Compound 10] | 12
21 | 3-Phenyl-1-propyl 1-(3,3-dimethyl-1,2-dioxobutyl)-2-piperidinecarbothioate [Compound 29] | 59
22 | 3-(3-Fluorophenyl)propyl (2S)-1-(3,3-dimethyl-2-oxopentanoyl)-2-pyrrolidinecarbothioate [Compound 58] | 79
23 | 4-Phenylbutyl 1-(3,3-dimethyl-2-oxopentanoyl)-2-piperidinecarbothioate [Compound 59] | 962
24 | 1,5-Diphenyl-3-pentyl 1-(3,3-dimethyl-1,2-dioxopentyl)-2-piperidinecarbothioate [Compound 40] | 1230
25 | 4-Phenyl-1-butyl (2S)-1-(2-cyclohexyl-1,2-dioxoethyl)-2-pyrrolidinecarbothioate [Compound 33] | 1700
26 | 3-(3-Chlorophenyl)propyl (2S)-1-(3,3-dimethyl-2-oxopentanoyl)-2-pyrrolidinecarbothioate [Compound 54] | 37
27 | 2-Phenyl-1-ethyl (2S)-1-(2-cyclohexyl-1,2-dioxoethyl)-2-pyrrolidinecarbothioate [Compound 12] | 442
28 | 2-Phenyl-1-ethyl (2S)-1-(1-cyclopentyl-1,2-dioxoethyl)-2-pyrrolidinecarbothioate [Compound 28] | 108
29 | 2,2-Diphenylethyl (2S)-1-(3,3-dimethyl-2-oxopentanoyl)-2-piperidinecarbothioate [Compound 49] | 1330
30 | 3-(3-Fluorophenyl)propyl 1-(3,3-dimethyl-2-oxopentanoyl)-2-piperidinecarbothioate [Compound 64] | 163

What follows are compounds tested on C57 black 6 mice (assay: In vivo hair generation test, Experiment A). Conditions: 30 μM topical, 3 applications over 5 days, after six weeks.
Text: Care was taken not to nick or cause abrasion to the underlaying dermal layers. The animals were in anagen growth phase, as indicated by the pinkish color of the skin. […] Hair growth was quantitated by the percent of shaved area covered by new hair growth during this time period.

Row | Compound | hair regrowth in shaved area
31 | CCC(C)(C)C(=O)C(=O)N1CCC[C@H]1C(=O)OCCCc1cccnc1 [GPI 1046, 3-(3-pyridyl)-1-propyl (2s)-1-(3,3-dimethyl-1,2-dioxopentyl)-2-pyrrolidinecarboxylate] | essentially complete hair regrowth

These compounds were tested on C57 black 6 mice (assay: In vivo hair generation test, Experiment B). Conditions: one micromole per milliliter topical, three times per week, 14 days after initiation of treatment.
Method: Care was taken not to nick or cause abrasion to the underlying dermal layers. The animals were in anagen growth phase when shaved. […] The animals were treated three times per week, and hair growth was evaluated 14 days after initiation of treatment.

Row | Compound | hair growth (relative hair growth index, FIG. 5)
32 | CCC(C)(C)C(=O)C(=O)N1CCC[C@H]1C(=O)SCCC(c1ccccc1)c1ccccc1 [GPI 1234] | dramatic hair growth
